# Assay results taken from patent publication US8765779B2, “Tricyclic derivatives and their pharmaceutical use and compositions” (Cephalon, Inc., priority 2009, dated 2014).
# Where a name gives a salt, the structure may show the parent alone.
# Biological target: T1, human 5-HT6 receptor (Homo sapiens, UniProt P50406)
# T1 construct: host or cells: CHO-K1 cells, stably transfected; membranes prepared in house
# Assay: Human 5-HT6 Receptor Binding Assay ([3H]LSD displacement, scintillation beads)
# Details: membranes of CHO-K1 cells with recombinant human 5-HT6, 4 nM [3H]LSD; Table 1, class symbols; read-out: h5-HT6 (Ki)
# T1 sequence (P50406 whole entry): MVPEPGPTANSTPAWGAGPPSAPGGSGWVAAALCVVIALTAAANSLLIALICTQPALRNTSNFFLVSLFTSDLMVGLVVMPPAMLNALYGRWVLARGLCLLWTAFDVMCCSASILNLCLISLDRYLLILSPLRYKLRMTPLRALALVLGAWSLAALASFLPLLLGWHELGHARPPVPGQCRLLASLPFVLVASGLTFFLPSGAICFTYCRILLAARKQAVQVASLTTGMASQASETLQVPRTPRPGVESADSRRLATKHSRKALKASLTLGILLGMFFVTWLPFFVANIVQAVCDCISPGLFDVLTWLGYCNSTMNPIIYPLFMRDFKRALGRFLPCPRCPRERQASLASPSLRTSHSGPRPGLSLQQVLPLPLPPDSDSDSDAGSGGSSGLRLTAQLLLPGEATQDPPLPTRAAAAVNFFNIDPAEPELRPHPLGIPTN
row,SMILES,Ki
1,O=S(=O)(c1cccc(Cl)c1)c1ccc2c3c(oc2c1)C1(CCOC1)NCC3 (stereo not drawn) [Example 306],< 500 nM
2,O=S(=O)(Oc1ccc2c(c1)OC1CNCCC21)c1ccccn1 (stereo not drawn) [Example 689],> 1000 nM
3,COc1cc(OC2CCCC2)cc(S(=O)(=O)c2ccc3c(c2)OC2CNCCC32)c1 (stereo not drawn) [Example 586],< 500 nM
4,O=S(=O)(c1ccc2oc3c(c2c1)CCNC3)c1cccc2cccnc12 [Example 354],< 500 nM
5,CN1CCC2c3ccc(OS(=O)(=O)c4ccc(Cl)cc4)cc3OC2C1 (stereo not drawn) [Example 799],500 to 1000 nM
6,CC(C)CN1CCc2c(oc3cc(S(=O)(=O)c4ccccc4)ccc23)C1 [Example 593],< 500 nM
7,O=S(=O)(c1ccc2c(c1)OC1CNCCC21)c1cccc2c1OC(F)(F)O2 (stereo not drawn) [Example 461],< 500 nM
8,"CC1(C)NCCc2c1oc1cc(S(=O)(=O)c3cccc(F)c3)ccc21 [Example 1, 7-[(3-Fluorophenyl)sulfonyl]-1,1-dimethyl-1,2,3,4-tetrahydro[1]benzofuro[2,3-c]pyridine]",< 500 nM
9,"CC(=O)N(C)CCC1NCCc2c1oc1cc(S(=O)(=O)c3cccc(Cl)c3)ccc21 (racemic) [Example 542, N-(2-{7-[(3-chlorophenyl)sulfonyl]-1,2,3,4-tetrahydro[1]benzofuro[2,3-c]pyridin-1-yl}ethyl)-N-methylacetamide]",< 500 nM
10,O=S(=O)(c1cccc(F)c1)c1ccc2c(c1)C1CCNCC1O2 (stereo not drawn) [Example 168],500 to 1000 nM
11,[O-][S+](c1cccc(C(F)(F)F)c1)c1ccc2c3c(oc2c1)C1(CCOCC1)NCC3 (stereo not drawn) [Example 297],< 500 nM
12,Cc1nc(COc2cccc(S(=O)(=O)c3ccc4c(c3)OC3CNCCC43)c2)cs1 (stereo not drawn) [Example 569],< 500 nM
13,COCCN1CCc2c(oc3cc(S(=O)(=O)c4ccccc4)ccc23)C1 [Example 594],< 500 nM
14,Cc1c(OCc2cccnc2)cccc1S(=O)(=O)c1ccc2c(c1)OC1CNCCC21 (stereo not drawn) [Example 566],< 500 nM
15,"CC1(C(F)F)NCCc2c1oc1cc(S(=O)(=O)c3cccc(F)c3F)ccc21 (single isomer, unassigned; enantiomer 1) [Example 471, 1-(Difluoromethyl)-7-[(2,3-difluorophenyl)sulfonyl]-1-methyl-1,2,3,4-tetrahydro[1]benzofuro[2,3-c]pyridine, enantiomer 1]",< 500 nM
16,CC(C)Oc1cccc(S(=O)(=O)c2ccc3c4c(oc3c2)CNCC4)c1 [Example 217],< 500 nM
17,CC(C)Oc1cc(F)cc(S(=O)(=O)c2ccc3c(c2)OC2CNCCC32)c1 (stereo not drawn) [Example 417],< 500 nM
18,"O=S(=O)(c1ccccc1)c1ccc2c3c(oc2c1)CN(CCO)CC3 [Example 592, 2-[7-(Phenylsulfonyl)-3,4-dihydro[1]benzofuro[2,3-c]pyridin-2(1H)-yl]ethanol]",< 500 nM
19,"O=S(=O)(c1ccccc1)c1ccc2c3c([nH]c2c1)C1(CCOCC1)NCC3 [Example 545, 7-(Phenylsulfonyl)-2,2′,3,3′,4,5′,6′,9-octahydrospiro[beta-carboline-1,4′-pyran]trifluoroacetate]",< 500 nM
20,"O=S(=O)(c1cccc(Br)c1)c1ccc2c3c(oc2c1)CNCC3 [Example 212, 7-[(3-bromophenyl)sulfonyl]-1,2,3,4-tetrahydro[1]benzofuro[2,3-c]pyridine]",< 500 nM
21,"CCOCC1NCCc2c1oc1cc(S(=O)(=O)c3cccc(F)c3)ccc21 (racemic) [Example 33, 1-(ethoxymethyl)-7-[(3-fluorophenyl)sulfonyl]-1,2,3,4-tetrahydro[1]benzofuro[2,3-c]pyridine]",< 500 nM
22,COC(=O)c1cccc(S(=O)(=O)c2ccc3c4c(oc3c2)CNCC4)c1 [Example 219],< 500 nM
23,O=S(=O)(Oc1ccc2c(c1)C1CCNCC1O2)c1cc(Cl)cc(Cl)c1 (stereo not drawn) [Example 739],< 500 nM
24,Cc1cc(S(=O)(=O)c2ccc3oc4c(c3c2)CCNC4)ccc1F [Example 268],< 500 nM

row,SMILES,Ki
1,"O=S(=O)(c1cccc(F)c1)c1ccc2oc3c(c2c1)CCNC3 [Example 244, 6-[(3-fluorophenyl)sulfonyl]-1,2,3,4-tetrahydro[1]benzofuro[2,3-c]pyridine]",< 500 nM
2,COc1ccc(S(=O)(=O)Oc2ccc3c(c2)C2CCNCC2O3)cc1OC (stereo not drawn) [Example 732],500 to 1000 nM
3,COc1cccc(S(=O)(=O)c2ccc3c(c2)C2CCNCC2O3)c1 (stereo not drawn) [Example 178],< 500 nM
4,O=S(=O)(c1ccc(Cl)cc1)c1ccc2c(c1)OC1CNCCC21 (stereo not drawn) [Example 322],< 500 nM
5,O=S(=O)(Oc1ccc2c(c1)OC1CNCCC21)c1c(Cl)nc2sccn12 (stereo not drawn) [Example 793],< 500 nM
6,CC1(C)NCCc2c1oc1cc(S(=O)(=O)c3cc(Cl)cnc3N)ccc21 [Example 372],< 500 nM
7,O=S(=O)(c1ccc(F)cc1)c1ccc2c(c1)OC1CNCCC21 (stereo not drawn) [Example 134],< 500 nM
8,[O-][S+](c1ccc2c(c1)OC1CNCCC21)c1cc(F)ccc1F (stereo not drawn) [Example 142],> 1000 nM
9,O=S(=O)(c1ccc2c(c1)C1CCNCC1O2)c1cccc2ccccc12 (stereo not drawn) [Example 170],< 500 nM
10,O=S(=O)(c1ccc2c3c(oc2c1)CNCC3)c1ccccc1F [Example 231],< 500 nM
11,CC1(C)NCCc2c1oc1cc(S(=O)(=O)c3ccc(F)c(F)c3)ccc21 [Example 290],< 500 nM
12,O=S(=O)(c1cccc(Cl)c1)c1ccc2oc3c(c2c1)CCNC3 [Example 243],< 500 nM
13,CC12CCNCC1Oc1ccc(OS(=O)(=O)c3ccc(-c4cnco4)cc3)cc12 (stereo not drawn) [Example 777],> 1000 nM
14,COc1ccc(S(=O)(=O)c2ccc3c(c2)OC2CNCCC32)cc1OC (stereo not drawn) [Example 115],> 1000 nM
15,O=S(=O)(c1cccc(F)c1)c1ccc2c(c1)OC1CNCCC21 (stereo not drawn) [Example 117],< 500 nM
16,O=S(=O)(Oc1ccc2c(c1)OC1CNCCC21)c1cccc2cccnc12 (stereo not drawn) [Example 662],< 500 nM
17,"O=S(=O)(c1cccc(OC(F)(F)F)c1)c1ccc2c3c([nH]c2c1)C1(CCCOC1)NCC3 (single isomer, unassigned) [Example 319]",< 500 nM
18,COc1ccc(S(=O)(=O)c2cccc3c2OC2CNCCC32)cc1 (stereo not drawn) [Example 187],500 to 1000 nM
19,O=S(=O)(c1ccccc1)c1ccc2c(c1)OC1CN(C3CCCC3)CCC21 (stereo not drawn) [Example 609],< 500 nM
20,O=S(=O)(c1ccc(Cl)cc1)c1cccc2c1OC1CNCCC21 (stereo not drawn) [Example 188],< 500 nM
21,COc1ccc(S(=O)(=O)c2ccc3c4c(oc3c2)C(C)NCC4)cc1F (stereo not drawn) [Example 236],< 500 nM
22,CC1(C)CNC2(CCOC2)c2oc3cc([S+]([O-])c4cncc(Cl)c4)ccc3c21 (stereo not drawn) [Example 455],> 1000 nM
23,Cc1ccc(F)cc1S(=O)(=O)c1ccc2c3c(oc2c1)CNCC3 [Example 206],< 500 nM
24,O=S(=O)(c1ccc(F)c(Cl)c1)c1ccc2c3c(oc2c1)CNCC3 [Example 193],< 500 nM

row,SMILES,Ki
1,O=S(=O)(c1cccc(C(F)(F)F)c1)c1ccc2oc3c(c2c1)CCNC3 [Example 239],< 500 nM
2,"O=S(=O)(c1ccc2oc3c(c2c1)CCNC3)c1cccc(Cl)c1Cl [Example 260, 6-[(2,3-dichlorophenyl)sulfonyl]-1,2,3,4-tetrahydro[1]benzofuro[2,3-c]pyridine]",< 500 nM
3,CC12CCNCC1Oc1ccc(OS(=O)(=O)c3ccccc3)cc12 (stereo not drawn) [Example 759],> 1000 nM
4,CC(C)S(=O)(=O)Nc1ccc2c(c1)C1CCNCC1O2 (stereo not drawn) [Example 832],> 1000 nM
5,COc1c(F)cc(F)cc1S(=O)(=O)c1ccc2c(c1)OC1CNCCC21C (stereo not drawn) [Example 486],< 500 nM
6,CC1(C)NCCc2c1oc1cc(S(=O)(=O)c3cccc4c3OC(F)(F)O4)ccc21 [Example 465],< 500 nM
7,O=S(=O)(Nc1ccc(Cl)cc1Cl)c1ccc2c(c1)C1CCNCC1O2 (stereo not drawn) [Example 844],> 1000 nM
8,O=S(=O)(c1ccc2c(c1)OC1CNCCC21)c1cc(F)cc(F)c1F (stereo not drawn) [Example 400],< 500 nM
9,O=S(=O)(c1cccc(F)c1)c1ccc2oc3c(c2c1)CCN1CCC31 (stereo not drawn) [Example 619],< 500 nM
10,O=S(=O)(c1cccc(Cl)c1)c1ccc2c3c(oc2c1)C(CC(F)(F)F)NCC3 (stereo not drawn) [Example 504],< 500 nM
11,COC(=O)c1cccc(S(=O)(=O)c2ccc3oc4c(c3c2)CCNC4)c1 [Example 269],500 to 1000 nM
12,COc1ccc(S(=O)(=O)c2ccc3c(c2)C2CCNCC2O3)cc1 (stereo not drawn) [Example 336],> 1000 nM
13,CC(C)(C)c1ccc(S(=O)(=O)Oc2ccc3c(c2)C2(C)CCNCC2O3)cc1 (stereo not drawn) [Example 774],> 1000 nM
14,O=S(=O)(c1cc(F)cc(F)c1)c1ccc2oc3c(c2c1)CCNC3 [Example 256],< 500 nM
15,O=S(=O)(Oc1ccc2c(c1)C1CCNCC1O2)c1ccc(Oc2ccccc2)nc1 (stereo not drawn) [Example 746],> 1000 nM
16,O=S(=O)(Nc1ccc2c(c1)C1CCNCC1O2)c1ccc(Cl)c(Cl)c1 (stereo not drawn) [Example 827],< 500 nM
17,COc1cccc(COc2cccc(S(=O)(=O)c3ccc4c(c3)OC3CNCCC43)c2)c1 (stereo not drawn) [Example 575],< 500 nM
18,O=S(=O)(c1ccc2c(c1)OC1CNCCC21)c1cccc2c1CCO2 (stereo not drawn) [Example 418],< 500 nM
19,"CC(=O)N1CCC2c3ccc(S(=O)(=O)c4ccccc4)cc3OC2C1 (stereo not drawn) [Example 613, 1-[7-(Phenylsulfonyl)-3,4,4a,9a-tetrahydro[1]benzofuro[2,3-c]pyridin-2(1H)-yl]ethanone]",> 1000 nM
20,"CC(C)Oc1cc(F)cc(S(=O)(=O)c2ccc3c(c2)OC2CNCCC32)c1 (single isomer, unassigned) [Example 364, 7-(3-Fluoro-5-isopropoxy-benzenesulfonyl)-1,2,3,4,4a,9a-hexahydro-benzo[4,5]furo[2,3-c]pyridine hydrochloride]",< 500 nM
21,O=S(=O)(c1cccc(C(F)(F)F)c1)c1ccc2c3c(oc2c1)C1(CCOC1)NCC3 (stereo not drawn) [Example 304],< 500 nM
22,Cc1c(S(=O)(=O)c2ccc3c4c(oc3c2)C(C)(C)NCC4)ccc[n+]1[O-] [Example 374],> 1000 nM
23,"CC1OCCC12NCCc1c2oc2cc(S(=O)(=O)c3cccc(F)c3)ccc12 (single isomer, unassigned) [Example 59, 7-[(3-Fluorophenyl)sulfonyl]-2′-methyl-3,4,4′,5′-tetrahydro-2H-spiro[1-benzofuro[2,3-c]pyridine-1,3′-furan]]",< 500 nM

# Same assay, conditions: membranes of CHO-K1 cells with recombinant human 5-HT6, 4 nM [3H]LSD; specific data; read-out: h5-HT6 (Ki)
row,SMILES,Ki
1,"CC1(C)NCCc2c1oc1cc(S(=O)(=O)c3cccc(F)c3)ccc21 [Example 1, 7-[(3-Fluorophenyl)sulfonyl]-1,1-dimethyl-1,2,3,4-tetrahydro[1]benzofuro[2,3-c]pyridine]",1.5 nM
